± gives the standard deviation of the averaged measurements.
What was measured:
IMATINIB = compound: Cc1ccc(NC(=O)c2ccc(CN3CCN(C)CC3)cc2)cc1Nc1nccc(-c2cccnc2)n1 [IMATINIB]; assay: surviving fraction relative to DMSO-only wells; higher = less growth inhibition; conditions: exposure time: 5 days
Method in brief: (§1)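 Tumour cell lines in log phase were plated in 384-well plates at 250–500 cells per well, then, after 24 hours, exposed continuously for five days to inhibitors at 0.5, 1, 5, 10, 50, 100, 500 and 1000 nM. Viability came from CellTiter-Glo luminescence, and surviving fraction is that signal normalised to the median of DMSO-only wells. Plates were read after 10 minutes at room temperature, and each line, screened three times, was kept only when replicate Pearson r was >0.7 and median Z' was >0.3.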

VORINOSTAT = compound: O=C(CCCCCCC(=O)Nc1ccccc1)NO [VORINOSTAT]; assay: as above; conditions: exposure time: 5 days
Method in brief: as §1

| Test System | surviving fraction (IMATINIB; 0.5 nM) | surviving fraction (IMATINIB; 1 nM) | surviving fraction (IMATINIB; 5 nM) | surviving fraction (IMATINIB; 50 nM) | surviving fraction (IMATINIB; 100 nM) | surviving fraction (IMATINIB; 500 nM) | surviving fraction (IMATINIB; 1000 nM) | surviving fraction (VORINOSTAT; 0.5 nM) | surviving fraction (VORINOSTAT; 1 nM) | surviving fraction (VORINOSTAT; 5 nM) | surviving fraction (VORINOSTAT; 10 nM) | surviving fraction (VORINOSTAT; 50 nM) | surviving fraction (VORINOSTAT; 100 nM) | surviving fraction (VORINOSTAT; 500 nM) | surviving fraction (VORINOSTAT; 1000 nM) | surviving fraction (IMATINIB; 10 nM) |
| --- | --- | --- | --- | --- | --- | --- | --- | --- | --- | --- | --- | --- | --- | --- | --- | --- |
| CAL120 BREAST | 0.995 ± 0.073 | 0.978 ± 0.041 | 0.994 ± 0.091 | 1.03 ± 0.021 | 0.97 ± 0.045 | 1.04 ± 0.044 | 0.992 ± 0.07 | 0.944 ± 0.017 | 0.896 ± 0.025 | 0.922 ± 0.013 | 0.883 ± 0.036 | 0.896 ± 0.025 | 0.78 ± 0.009 | 0.4962 ± 0.0023 | 0.248 ± 0.054 |  |
| CASKI CERVIX | 0.935 ± 0.028 | 0.9783 ± 0.0081 | 1.01 ± 0.048 | 1.06 ± 0.042 | 1.06 ± 0.06 | 0.919 ± 0.037 | 1 ± 0.04 | 0.88 ± 0.024 | 0.942 ± 0.062 | 0.957 ± 0.013 | 0.903 ± 0.029 | 0.971 ± 0.046 | 0.955 ± 0.034 | 0.496 ± 0.02 | 0.448 ± 0.027 | 0.962 ± 0.029 |
| CHLA90 AUTONOMIC GANGLIA | 1 ± 0.022 | 1.02 ± 0.071 | 0.993 ± 0.063 | 1.12 ± 0.084 | 1.02 ± 0.091 |  | 1.11 ± 0.079 | 0.971 ± 0.026 | 1.08 ± 0.046 | 0.976 ± 0.013 | 0.839 ± 0.047 | 1.02 ± 0.052 | 0.982 ± 0.063 | 0.977 ± 0.022 | 0.844 ± 0.053 | 0.98 ± 0.12 |
| CME SYNOVIAL | 1.27 ± 0.17 | 1.4 ± 0.045 | 1.28 ± 0.03 | 1.22 ± 0.1 | 1.37 ± 0.042 | 1.15 ± 0.047 | 1.14 ± 0.055 | 1.25 ± 0.12 | 1.15 ± 0.087 | 1.21 ± 0.061 | 0.882 ± 0.044 | 1.28 ± 0.1 | 1.08 ± 0.043 | 0.607 ± 0.089 | 0.383 ± 0.027 | 1.24 ± 0.16 |
| COLO320DM LARGE INTESTINE | 1.1 ± 0.17 | 1.14 ± 0.052 | 1.08 ± 0.16 | 1.12 ± 0.12 | 1.14 ± 0.098 | 1.15 ± 0.12 | 1.16 ± 0.039 | 1.1 ± 0.13 | 1.18 ± 0.15 | 1.12 ± 0.086 | 1.04 ± 0.049 | 1.22 ± 0.17 | 1.07 ± 0.14 | 0.577 ± 0.041 | 0.177 ± 0.0091 | 1.12 ± 0.11 |
